Assay results as given in patent publication US12653809B2, “Urea, amide, and substituted heteroaryl compounds for CBL-B inhibition” (Nurix Therapeutics, Inc., priority 2019, dated 2026).
Like-named read-outs stand apart in the source and are kept apart here. Each block holds one compound with its values, some of them ahead of it.

Target: T1, Cbl-b (truncated variant, UniProt number Q13191) (Homo sapiens, UniProt Q13191)
T1 construct: made in house
Assay: Cbl-b activity assay (TR-FRET, interaction of Cbl-b with UbcH5B-Ub)
Type: biochemical

[1] = high conditions: 100 mM NaCl, 60 nM Src kinase, 12 nM Cbl-b, read-out: Cbl-b activity IC50
[2] = Biological Example 1A, low or high conditions not stated, read-out: IC50 values in the Cbl-b inhibition assay of Biological Example 1A

T1 sequence (Q13191 36-427): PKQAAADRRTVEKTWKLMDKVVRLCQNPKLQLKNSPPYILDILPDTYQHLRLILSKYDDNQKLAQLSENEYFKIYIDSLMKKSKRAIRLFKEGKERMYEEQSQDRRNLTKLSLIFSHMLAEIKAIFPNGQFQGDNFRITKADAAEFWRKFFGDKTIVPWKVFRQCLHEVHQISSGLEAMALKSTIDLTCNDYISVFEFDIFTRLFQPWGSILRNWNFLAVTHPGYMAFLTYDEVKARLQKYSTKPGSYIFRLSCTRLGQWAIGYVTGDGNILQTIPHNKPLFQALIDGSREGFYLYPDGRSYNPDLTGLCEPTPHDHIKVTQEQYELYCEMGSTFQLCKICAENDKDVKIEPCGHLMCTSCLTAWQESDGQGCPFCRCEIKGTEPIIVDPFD

Compound: CNC(=O)C1(C(F)(F)F)CCN(C(=O)Nc2cccc([C@H](C)Cc3nncn3C)c2)C1 (stereo partly drawn) [Example 20, N^3-methyl-N^1-(3-((R)-1-(4-methyl-4H-1,2,4-triazol-3-yl)propan-2-yl)phenyl)-3-(trifluoromethyl)pyrrolidine-1,3-dicarboxamide]
IC50 [1]: 100 to 1000 nM

Compound: C[C@H](Cc1nncn1C)c1cccc(-c2n[nH]c3cc(C4CCC4)cnc23)c1 [Example 120, (R)-6-cyclobutyl-3-(3-(1-(4-methyl-4H-1,2,4-triazol-3-yl)propan-2-yl)phenyl)-1H-pyrazolo[4,3-b]pyridine]
IC50 [1]: 1000 to 5000 nM

Compound: C[C@H](Cc1nncn1C)c1cccc(NC(=O)N2CC(C)(C)c3cccnc32)c1 [Example 22, (R)-3,3-dimethyl-N-(3-(1-(4-methyl-4H-1,2,4-triazol-3-yl)propan-2-yl)phenyl)-2,3-dihydro-1H-pyrrolo[2,3-b]pyridine-1-carboxamide]
IC50 [1]: 100 to 1000 nM

Compound: CNS(=O)(=O)c1ccc(NC(=O)Nc2cccc([C@H](C)Sc3nncn3C)c2)cc1 [Example 163, (S)—N-methyl-4-(3-(3-(1-((4-methyl-4H-1,2,4-triazol-3-yl)thio)ethyl)phenyl)ureido)benzenesulfonamide]
IC50 [1]: ≥ 5000 nM

Compound: Cc1cccc(NC(=O)c2cccc(C3(Cc4nncn4C)COC3)c2)n1 [Example 38, 3-(3-((4-methyl-4H-1,2,4-triazol-3-yl)methyl)oxetan-3-yl)-N-(6-methylpyridin-2-yl)benzamide]
IC50 [2]: ≥ 5000 nM
IC50 [1]: ≥ 5000 nM

Compound: CN1CC2(C1)CN(C(=O)Nc1cccc(C3(Cc4nncn4C)COC3)c1)c1ncccc1O2 [Example 29, 1-methyl-N-(3-(3-((4-methyl-4H-1,2,4-triazol-3-yl)methyl)oxetan-3-yl)phenyl)spiro[azetidine-3,2′-pyrido[3,2-b][1,4]oxazine]-4′(3′H)-carboxamide]
IC50 [1]: < 100 nM

Compound: C[C@H](Sc1nncn1C)c1cccc(NC(=O)N2CCN(C)CC2)c1 [Example 155, (S)-4-methyl-N-(3-(1-((4-methyl-4H-1,2,4-triazol-3-yl)thio)ethyl)phenyl)piperazine-1-carboxamide]
IC50 [1]: ≥ 5000 nM

Compound: C[C@H](Sc1nncn1C)c1ccnc(NC(=O)Nc2ccccn2)c1 [Example 121, (S)-1-(4-(1-((4-methyl-4H-1,2,4-triazol-3-yl)thio)ethyl)pyridin-2-yl)-3-(pyridin-2-yl)urea]
IC50 [1]: ≥ 5000 nM

Compound: Cn1cnnc1CC1(c2cccc(N3CC4C(C(F)(F)F)CCN4C3=O)c2)COC1 (centres unmarked) [Example 32, 2-(3-(3-((4-methyl-4H-1,2,4-triazol-3-yl)methyl)oxetan-3-yl)phenyl)-7-(trifluoromethyl)hexahydro-3H-pyrrolo[1,2-c]imidazol-3-one]
IC50 [2]: 1000 to 5000 nM
IC50 [1]: 1000 to 5000 nM

Further lines, results first:

IC50 [2]: 1000 to 5000 nM
IC50 [1]: 1000 to 5000 nM
Compound: C[C@H](Sc1nncn1C)c1cccc(-n2ncc(-c3ccc(CO)cc3)n2)c1 [Example 84, (S)-(4-(2-(3-(1-(4-methyl-4H-1,2,4-triazol-3-ylthio)ethyl)phenyl)-2H-1,2,3-triazol-4-yl)phenyl)methanol]

IC50 [1]: 1000 to 5000 nM
Compound: COc1cccc(-c2cc(-c3cccc([C@H](C)Sc4nncn4C)c3)on2)c1 [Example 60, (S)-3-(3-methoxyphenyl)-5-(3-(1-((4-methyl-4H-1,2,4-triazol-3-yl)thio)ethyl)phenyl)isoxazole]

IC50 [2]: 100 to 1000 nM
IC50 [1]: 100 to 1000 nM
Compound: COc1ccc(-c2cnn(-c3cccc([C@H](C)Sc4nncn4C)c3)n2)cc1 [Example 74, (S)-4-(4-methoxyphenyl)-2-(3-(1-((4-methyl-4H-1,2,4-triazol-3-yl)thio)ethyl)phenyl)-2H-1,2,3-triazole]

IC50 [2]: < 100 nM
IC50 (low conditions: 50 mM NaCl, 30 nM Src kinase, 12 nM Cbl-b, read-out: Cbl-b activity IC50): < 100 nM
Compound: CC(Sc1nncn1C)c1cccc(C(=O)Nc2cc3ccccc3cn2)c1 (centres unmarked) [Example 122, N-(isoquinolin-3-yl)-3-(1-((4-methyl-4H-1,2,4-triazol-3-yl)thio)ethyl)benzamide]

IC50 [2]: 100 to 1000 nM
IC50 [1]: 100 to 1000 nM
Compound: C[C@H](Sc1nncn1C)c1cccc(NC(=O)N2Cc3cccc(O)c3C2)c1 [Example 45, (S)-4-hydroxy-N-(3-(1-((4-methyl-4H-1,2,4-triazol-3-yl)thio)ethyl)phenyl)isoindoline-2-carboxamide]

IC50 [2]: ≥ 5000 nM
IC50 [1]: ≥ 5000 nM
Compound: CC(Sc1nncn1C)c1cccc(-c2cc(-c3ccccn3)no2)c1 (centres unmarked) [Example 70, 5-(3-(1-((4-methyl-4H-1,2,4-triazol-3-yl)thio)ethyl)phenyl)-3-(pyridin-2-yl)isoxazole]

IC50 [1]: ≥ 5000 nM
Compound: C[C@H](Sc1nncn1C)c1cccc(NC(=O)N2CCC(c3ccccc3)C2)c1 (stereo partly drawn) [Example 127, N-(3-((S)-1-((4-methyl-4H-1,2,4-triazol-3-yl)thio)ethyl)phenyl)-3-phenylpyrrolidine-1-carboxamide]

IC50 [2]: 100 to 1000 nM
IC50 [1]: 100 to 1000 nM
Compound: C[C@H](Sc1nncn1C)c1cccc(-c2cc(-c3ccccc3)n[nH]2)c1 [Example 102, (S)-4-methyl-3-((1-(3-(3-phenyl-1H-pyrazol-5-yl)phenyl)ethyl)thio)-4H-1,2,4-triazole]

IC50 [1]: ≥ 5000 nM
Compound: C[C@H](Sc1nncn1C)c1cccc(C(=O)Nc2ccc3ccccc3n2)c1 [Example 35, (S)-3-(1-((4-methyl-4H-1,2,4-triazol-3-yl)thio)ethyl)-N-(quinolin-2-yl)benzamide]

IC50 [2]: ≥ 5000 nM
IC50 [1]: ≥ 5000 nM
Compound: C[C@H](Sc1nncn1C)c1cccc(-n2cc(-c3cccc(C(=O)O)c3)nn2)c1 [Example 91, (S)-3-(1-(3-(1-(4-methyl-4H-1,2,4-triazol-3-ylthio)ethyl)phenyl)-1H-1,2,3-triazol-4-yl)benzoic acid]

IC50 [2]: ≥ 5000 nM
IC50 [1]: ≥ 5000 nM
Compound: CNC(=O)c1cccc(-c2cn(-c3cccc([C@H](C)Sc4nncn4C)c3)nn2)c1 [Example 94, (S)—N-methyl-3-(1-(3-(1-(4-methyl-4H-1,2,4-triazol-3-ylthio)ethyl)phenyl)-1H-1,2,3-triazol-4-yl)benzamide]

IC50 [2]: 1000 to 5000 nM
IC50 [1]: 1000 to 5000 nM
Compound: C[C@H](Sc1nncn1C)c1cccc(-n2cc(-c3cccc(C(N)=O)c3)nn2)c1 [Example 96, (S)-3-(1-(3-(1-(4-methyl-4H-1,2,4-triazol-3-ylthio)ethyl)phenyl)-1H-1,2,3-triazol-4-yl)benzamide]
